Measured values reported in patent US20100280098A1, “RECEPTOR TARGETED OLIGONUCLEOTIDES” (priority 2007, published 2010).
Entries after “also recorded” stand apart in the source; their conditions may differ.

Tests used:
αvβ3 = assay: Cell surface αvβ3 level by immunostaining and flow cytometry; assay type: cell-based, human; details: 200 nM, 24 h exposure
Experimental: Then, αvβ3 levels were determined by immunostaining with anti-αvβ3 antibody. […] The y axis of each panel indicates the number of cells, while the x axis indicates the log of fluorescence intensity.
(§1) Cell Uptake, Confocal Fluorescence Microscopy, and Flow Cytometry: Total cellular uptake of Tamra-labeled oligonucleotides was monitored using a Nanodrop microfluorimeter (Nanodrop Technologies, Wilmington, Del., United States of America). After treatment with oligonucleotides the cells were lysed in a mild non-ionic detergent buffer and the Tamra fluorescence (emission 583 nm) was quantitated based on a linear standard curve of unconjugated Tamra in buffer. Intracellular distribution of Tamra-labeled oligonucleotides was examined using an Olympus Confocal FV300 fluorescent microscope (Olympus America Inc., Center Valley, Pa., United States of America) with 60X-oil immersion objective, as previously described. See Astriab-Fisher et al. (2004) Biochem. Pharmacol., 68, 403-407. Expression levels of αvβ3 were monitored by immunostaining with an anti-human-αvβ3 monoclonal (Chemicon, Temecula, Calif., United States of America) followed by an Alexa 488 rabbit antimouse secondary antibody, with analysis by flow cytometry using a DakoCytomation (Glostrop, Denmark) machine.

A375SM-Luc705-B cells [1] = assay: Subcellular distribution and co-localization by confocal fluorescence microscopy (peptide conjugate); assay type: cell-based; details: living cells; 200 nM, complex 100 nM
From the text: as §1

A375SM-Luc705-B cells [2] = assay: Short-term toxicity, viable cell count after 48 h (peptide conjugate); assay type: cell-based; details: concentrations up to 1000 nM, 48 h
Experimental: Toxicity Studies: Cells were treated with various concentrations of oligonucleotides or conjugates under the same conditions as used for the luciferase induction experiments. After 48 h in medium plus 1% FBS, cells were trypsinized and viable cells were counted in an electronic particle counter.

Micrococcal nuclease = Micrococcal nuclease (Staphylococcus aureus, UniProt P00644); assay: Nuclease stability by polyacrylamide gel; assay type: in vitro ADME; details: 0-12 h, 37° C.
Experimental: The reactions were then stopped by the addition of EDTA (50 mM), and the fluorescent samples were analyzed on 10% polyacrylamide gels and examined under long-wavelength ultraviolet illumination to detect possible nucleolytic cleavage of the Tamra-labeled oligonucleotides.

A375SM-Luc705-B cells [3] = assay: Confocal microscopy of live cells, albumin conjugates; assay type: cell-based; details: 100 nM, 24 h
Experimental: Cellular Uptake and Confocal Microscopy: Cells were seeded onto either 12 well plates at 1×10^5 cells per well for cellular uptake measurements or in 12 well glass-bottom plates at 2×10^4 cells per well for live cell analysis by confocal microscopy. After treatment of cells with Tamra labeled oligonucleotide derivatives for 24 h, the cells were either lysed for measurement of Tamra fluorescence using a Nanodrop microfluorimeter (Nanodrop Technologies, Wilmington, Deleware, United States of America) or washed with DMEM containing 10% FBS and then placed in DMEM without phenol red, supplemented with 1% FBS, for confocal microscopy analysis. Co-localization of Tamra-labeled oligonucleotides with Alexa 488 labeled Transferrin or Dextran (Molecular Probes, Beaverton, Oreg., United States of America) in live cell was also examined by confocal microscopy. An Olympus confocal microscope with a 60× objective lens was used, and the data were processed using Fluoview software (Olympus, Center Valley, Pa., United States of America) as described in Example 1.

Q: Which “level of surface αvβ3 expression” value (αvβ3) does the source give for “5′-GTTATTCTTTAGAATGGTGC-Tamra-3′ [623-Tamra]” here?
A: no effect

Q: What about the “cellular uptake seen by confocal microscopy” value (A375SM-Luc705-B cells [1]) of the same substance?
A: relatively little uptake was observed; also recorded: Very little fluorescence related to cellular uptake of Tamra was observed

Q: What about the “short-term toxicity (viable cells)” value (A375SM-Luc705-B cells [2]) of the same substance?
A: little effect

Q: And the “stability to micrococcal nuclease” value (Micrococcal nuclease)?
A: gradual degradation

Q: What about the “intracellular Tamra fluorescence” value (A375SM-Luc705-B cells [3]) of the same substance?
A: less intracellular fluorescene

Q: What about the “nuclear accumulation of Tamra fluorescence” value (A375SM-Luc705-B cells [3]) of the same substance?
A: No Tamra fluorophore appeared to have accumulated in nuclei

Q: And the “nuclear accumulation of Tamra fluorescence” value (A375SM-Luc705-B cells [3]; listed as 623 Tamra)?
A: no evidence of nuclear accumulation
